From patent US20250339642A1, “CATHETERS” (ConvaTec Limited, priority 2023, published 2025)

Legend:
Format in all cases: cell-based
S. aureus = assay: Rate of kill assessment, direct repeat inoculation of medium containing catheter; conditions: sample taken 5 seconds after each inoculation
Experimental: (§1) A microbiology assessment was performed using a medium of the invention comprising hypochlorous acid in an analogous manner to that performed for Example 2. However, for this test, following each inoculation, a sample was only taken after 5 seconds to evaluate the rate of kill. Further, in addition to the previous microorganisms tested, a further gram-positive organism, S. aureus, was tested.
(§2) A microbiology assessment was performed using a medium comprising chlorine dioxide in an analogous manner to that performed for Example 5.

E. coli = assay: as above; conditions: sample taken 5 seconds after each inoculation
Experimental: (§3) To assess the sterilisation potential of the medium comprising chlorine-containing species, a microbiology assessment was conducted which consisted of rate of kill assessments against repeat inoculation of E. coli and E. faecalis. These organisms were selected as they are commonly identified in catheter associated urinary tract infections. The selection also covers both gram-positive and gram-negative species to test the broad spectrum antimicrobial performance of the medium.
(§4) Intermittent urinary catheters, as used for Example 1, were provided and submerged in an aqueous medium comprising sodium hypochlorite and sodium chloride. The media comprising the catheters were respectively inoculated with the two microorganisms.
(§5) A direct inoculation method was applied against each microorganism. The test organisms were reinoculated following 1, 2, 3, 4, 5, 6, and 24 hours. Following each inoculation, a sample was taken after 5 seconds, 1, 5, 10 and 15 minutes to evaluate the rate of kill.
as §1, §2
(§6) A microbiology assessment was performed using the media comprising hypochlorous acid in an analogous manner to that performed for Example 2. However, for this test, following each inoculation, samples were taken after 5 seconds, 30 seconds, 1, 2, and 5 minutes to evaluate the rate of kill.

E. faecalis = assay: as above; conditions: for Reduction in microbial colony forming unit (CFU) counts: reinoculation at 24 hours; for Time up to which rapid kill within 5 seconds following inoculation was observed: repeat inoculation, sample taken 5 seconds after each inoculation
Experimental: as §3, §4, §5, §1, §2, §6

E. coli NCIMB 14067 = assay: Antimicrobial efficacy at very low concentrations, suspension test with total viable counts
Experimental: The antimicrobial efficacy of hypochlorous acid was tested at even lower concentrations (10, 25, and 50 ppm) against the challenging organism E. coli NCIMB 14067.
The representative colonies of E. coli NCIMB 14067 were dispersed in maximum recovery diluent (MRD) to obtain an optical density (OD540nm) equivalent to approximately 1×10^6 CFU/mL. A quantitative plate count was performed on this suspension to determine the total number of viable organisms inoculated. A new suspension was prepared for each concentration tested.
A 1000 ppm hypochlorous acid solution was diluted in sterile deionised water to provide the respective 10, 25 and 50 ppm hypochlorous acid solutions.
The hypochlorous acid samples were aliquoted into 9 mL volumes and 1 mL of the challenge organism suspension was added and mixed (the final number of bacteria present is now approximately 1×10^5 CFU/mL). Following 5, 30 seconds, 1, 2, and 5 minutes, 100 μL volumes were sampled and transferred to 0.9 mL and 9.9 mL of Dey-Engley Neutralising Broth (DENB) (to provide a 1:10 and 1:100 dilution respectively), and total viable counts were performed to establish the amount present. The plates were left to dry before being inverted and incubated at 35±3° C. for at least 48 hours. A negative control was also tested whereby 1 mL of the challenge organism suspension was added to 9 mL of MRD and tested as previously described. Following the incubation period, the number of CFUs were counted on the most appropriate dilution for each sample i.e. between 25-250 CFU/plate.

[1] = tested on: Enterococcus faecalis NCTC 12201; assay: In vitro direct inoculation method, bacterial levels over 5 minutes
Experimental: (§7) An in vitro direct inoculation method was used to assess the antimicrobial activity of sulfanilamide in an intermittent urinary catheter scenario against […] Escherichia coli NCIMB 14067 and […] Enterococcus faecalis NCTC 12201; two microorganisms associated with urinary tract infections. Sulfanilamide concentrations of 0.1% and 0.01% were tested and bacterial levels monitored over a period of 5 minutes.
(§8) Representative colonies of the challenge microorganisms, from an 18-24 hour challenge culture plate, were dispersed in MRD to obtain an optical density (OD540nm) equivalent to approximately 1×10^8 CFU/mL. This was diluted to obtain a working concentration of 1×10^6 CFU/mL. A quantitative count was performed to confirm the inoculum level.
(§9) The challenge organism was prepared in MRD to a concentration of approximately 1×10^6 CFU/mL. This suspension was added in a 1 mL volume to 9 mL of sample (n=3 per sample, n=2 per control) in a sterile 30 mL universal and pipetted up and down to mix. Following each testing period, 5 seconds, 30 seconds, 1 minute, 2 minutes and 5 minutes, 100 μL of the test solution was transferred to 0.9 mL and 9.9 mL volumes of DENB (1:10 and 1:100 dilutions respectively). The most appropriate dilutions were inoculated (100 μL) onto duplicate pre-dried (tryptone soy agar) TSA plates and the inoculum spread using separate sterile L-shaped spreaders (for 10^−1 and 10^−2 dilutions, 0.5 mL were placed onto duplicate plates). The TSA plates were allowed to dry before being inverted and incubated at 35±3° C. for at least 48 hours. Following the incubation period, the number of bacterial colonies were counted on the most appropriate dilution for each dressing type i.e. between 25-250 CFU/plate.
(§10) The samples tested were: 0.1% sulfanilamide in sterile deionised water (SDW); 0.01% sulfanilamide in SDW; 100 ppm hypochlorous acid in SDW; and a SDW control.

[2] = tested on: Escherichia coli NCIMB 14067; assay: as above
Experimental: as §7, §8, §9, §10

[3] = 100 ppm in SDW, within 5 seconds and for the remaining testing period
[4] = both concentrations tested (0.1% and 0.01% in SDW), any timepoint, 5 seconds to 5 minutes

For [O][Cl+][O-] [chlorine dioxide], the “Time up to which rapid kill within 5 seconds following inoculation was observed” value (“Time up” below) (S. aureus) was “up to 6 hours”, the “Time up” value (E. coli) was “up to 24 hours” and the “Reduction in microbial colony forming unit (CFU) counts” value (E. faecalis; after around 30 seconds of inoculation) was 4 orders of magnitude. For the same compound, the “Time up” value (E. faecalis) was “up to 6 hours”.

With OCl [hypochlorous acid] the “Time up” value (S. aureus) was “up to 6 hours”, the “Time up” value (E. coli) was “up to 24 hours” and the “Reduction in microbial colony forming unit (CFU) counts” value (E. faecalis; after 5 minutes of inoculation) was “over 3 orders of magnitude”. The “Time up” value (E. faecalis) was “up to 6 hours”, the “Bacterial level at the 1 minute timepoint” value (E. coli NCIMB 14067; 10 ppm, about 1×10^5 CFU/mL inoculum) was “undetectable” and the “Numbers of bacteria after 30 seconds” value (E. coli NCIMB 14067; 25 ppm, about 1×10^5 CFU/mL inoculum) was “undetectable”. The “Numbers of bacteria after 30 seconds” value (E. coli NCIMB 14067; 50 ppm, about 1×10^5 CFU/mL inoculum) was “undetectable”, the “CFU/mL of negative control (MRD) larger than for the samples” value (E. coli NCIMB 14067; all concentrations (10, 25, 50 ppm) and time points tested) was “over 4 orders of magnitude” and the “Numbers of challenge organism” value [1, 3] was “undetectable”. For the same compound, the “Numbers of challenge organism” value [2, 3] was “undetectable”.

For Nc1ccc(S(N)(=O)=O)cc1 [sulfanilamide, reference compound], the “Decrease in challenge organism numbers compared to the control” value [1, 4] was “no decrease” and the “Decrease in challenge organism numbers compared to the control” value [2, 4] was “no decrease”.
